Experimental data as given in patent US12516063B2, “Substituted 7-(methylamino)pyrazolo[1,5-a]pyrimidine-3-carboxamide derivatives for treating autoimmune diseases” (Eli Lilly and Company, priority 2020, dated 2026).

Assays:
[1] = biological target: T1, pseudokinase domain (JH2) of human TYK2 (Homo sapiens, UniProt P29597); experiment: TYK2-JH2 Tracer Binding Assay; settings: His-tagged TYK2-JH2 0.200 nM, Tracer 2.00 nM, 30 minutes, TR-FRET; n=1
T1 construct: The pseudokinase domain (JH2) of human JAK (Janus family of cytoplasmic tyrosine kinases) family tyrosine kinase 2 (TYK2); made in house
T1 sequence (P29597 589-875 limits assumed): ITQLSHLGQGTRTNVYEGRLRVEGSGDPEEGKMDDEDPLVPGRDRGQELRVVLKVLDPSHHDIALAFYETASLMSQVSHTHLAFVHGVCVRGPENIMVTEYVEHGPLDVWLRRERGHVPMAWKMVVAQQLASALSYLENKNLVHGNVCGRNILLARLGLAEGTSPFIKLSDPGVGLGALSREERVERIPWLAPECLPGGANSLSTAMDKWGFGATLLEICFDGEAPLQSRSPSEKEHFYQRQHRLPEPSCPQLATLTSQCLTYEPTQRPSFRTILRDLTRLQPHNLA
From the text: The pseudokinase domain (JH2) of human JAK (Janus family of cytoplasmic tyrosine kinases) family tyrosine kinase 2 (TYK2) (Genbank NP_003322) with an N-terminal His6 tag is expressed in baculovirus and purified by HisPur Ni-NTA affinity and Superdex 200 size-exclusion chromatography. The compound prepared in Preparation 11, a conjugate of Alexa Fluor 647 dye (Thermo Fisher Scientific) and a suitable TYK2 JH2 binder, is referred to herein as “the Tracer”. A 3 fold, 10 point serial dilution of compound, Example 1 and Example 2, are prepared in 100% DMSO and 50 nL/well transferred to a Proxiplate-384F white plate (PerkinElmer 6008280) using acoustic liquid handling. Control wells used to determine percent inhibition contained 100% DMSO (50 nL) and either assay buffer containing the Tracer (2.00 nM final concentration) (min, low FRET) or diluted TYK2-JH2 enzyme (0.200 nM final concentration) and the Tracer (2.00 nM final concentration) (max, high FRET). […] After 30 minutes, the plate is counted on a PerkinElmer Envision with the following settings: Excitation (340 nm), Tracer Emission (665 nm) and LanthaScreen Eu-anti-His Antibody Emission (615 nm). The ratio of Tracer Emission (665 nm) over LanthaScreen Eu-anti-His Antibody Emission (615 nm) is determined.

[2] = tested on: IL-23 signaling (STAT3 phosphorylation) in Kit225 cells; experiment: IL23 pSTAT3 AlphaLISA Assay; format: cell-based; settings: 1 hour pre-incubation, IL23 25 ng/mL for 30 minutes, GeoMetric mean (SEM), read-out: relative IC50 (IL23 pSTAT3 AlphaLISA)
Description: IL2-dependent Kit225 cells (University of Texas MD Anderson Cancer Center) expressing endogenous IL23 receptors are stably transduced with the Lenti STAT3 Reporter linked to firefly luciferase (SABiosciences CLS-6028L). These cells are used to monitor TYK2 activity by quantifying gene expression caused by STAT3 phosphorylation following induction by IL23 in the presence of IL2 using AlphaLISA technology (TGR Biosciences ALSU-TST3-A50K). The cells are grown in RPMI 1640 (Gibco 22400) supplemented with 10% FBS (Invitrogen 10082), 1×Pen/Strep (Gibco 15140-122), 200 ng/ml Puromycin (Sigma P9620), and fresh 10 ng/ml recombinant human IL2 (R&D Systems 202-IL-50).
For assay preparation, cells are dispensed into Biocoat black poly-d-lysine coated clear bottom 384-well plates (Becton Dickinson Bio-Coat 35-4640) in DMEM (Sigma D5796) at 300,000 cells/well and allowed to incubate overnight at 37° C. Compounds solubilized in DMSO are serially diluted 1:3 to produce a 10-point concentration response curve (final DMSO=0.1%). Cells are pre-incubated with Example 1 for 1 hour at 37° C., then stimulated with IL23 (25 ng/mL final) for 30 minutes. […] The AlphaLISA reaction is performed following the vendor's recommended protocol, and the […] are measured using an Envision plate reader (Perkin Elmer).

[3] = tested on: IFNα signaling through pSTAT1 in TF1 cells; experiment: Inhibition of IFNα Signaling Through pSTAT1 in TF1 Cells; format: cell-based; settings: Homo sapiens, TF-1, 1 hour pre-incubation, 10 ng/mL IFNα2 for 20 minutes, GeoMetric mean (SEM), read-out: IC50 (inhibition of p-Stat1 (Tyr701))
Description: TF1 cells (ATCC, CL-2003) are grown in RPMI 1640 (GIBCO) supplemented with 10% dialyzed FBS, 0.1 mg/mL Ampicillin and 2 ng/mL granulocyte macrophage colony stimulating factor. TF1 cells (100 K per well) are seeded in a 96-well poly-D-lysine coated plates in serum-free DMEM and incubated overnight at 37° C. under 5% CO2. Example 1 is serially diluted in DMSO, added to the cells, and incubated at 37° C. for 1 hour. Cells are then stimulated with 10 ng/mL IFNα2 at 37° C. for 20 minutes. After removing the medium, the cells are lysed in buffer containing Halt protease and phosphatase inhibitor cocktail (Thermo Scientific #78441) at ambient temperature for 30 minutes. The amount of p-Stat1 (Tyr701) is quantified as light emission at 615 nm using the AlphaLISA SureFire Ultra p-Stat1 (Tyr701) assay kit (Perkin Elmer #ALSU-PST1-A50K) following the vendor's recommended protocol.

IC50 [1]	IC50 [2]	IC50 [3]	SMILES
< 0.254 nM	29 nM	38 nM	CCOc1cccc(Nc2cc(NC)n3ncc(C(=O)N[C@@H]4CCN(C)C4=O)c3n2)n1 [Example 1, 5-[(6-Ethoxy-2-pyridyl)amino]-7-(methylamino)-N-[(3R)-1-methyl-2-oxo-pyrrolidin-3-yl]pyrazolo[1,5-a]pyrimidine-3-carboxamide]
< 0.254 nM	60 nM	84 nM	CNc1cc(Nc2cc(C)cc(C)n2)nc2c(C(=O)N[C@@H]3CCN(C)C3=O)cnn12 [Example 2, 5-[(4,6-Dimethyl-2-pyridyl)amino]-7-(methylamino)-N-[(3R)-1-methyl-2-oxo-pyrrolidin-3-yl]pyrazolo[1,5-a]pyrimidine-3-carboxamide]
